Experimental data as given in paper PMC7019903 (Viruses, 2020).
Where two headings read alike, the source gives them in different places.

Tests used:
in vitro [1] = conditions: human
in vitro [2] = conditions: Mesocricetus auratus (hamster)
[3] = system: Hantaan (HTNV) (strain 76–118); test: microbe, parasite or virus in culture; format: cell-based, Hantaan virus; conditions: for EC50: read-out: HTNV EC50
in vitro [4] = conditions: African green monkey
in vitro [5] = conditions: Bos taurus (cattle)
in vitro [6] = conditions: Cercopithecus aethiops (monkey)
HTNV = format: cell-based, Hantaan virus
[7] = Orthohantavirus hantanense, Vero C1008, 168 h

Nc1ccc(-n2nnc3cc(Cl)c(Cl)cc32)cc1 [1a]
CC50 (in vitro [1]): ≥ 100 µM
CC50 (in vitro [2]): > 100 µM
EC50 [3, 7]: > 30 µM
CC50 (in vitro [4]): > 30 µM

CC(=O)Nc1ccc(-n2nnc3cc(Cl)c(Cl)cc32)cc1 [1b]
CC50 (in vitro [2]): 53 µM
EC50 [3, 7]: > 20 µM
CC50 (in vitro [4]): 20 µM

CCC(=O)Nc1ccc(-n2nnc3cc(Cl)c(Cl)cc32)cc1 [1c]
CC50 (in vitro [2]): 54 µM
EC50 [3, 7]: > 20 µM
CC50 (in vitro [5]): ≥ 100 µM
CC50 (in vitro [4]): 20 µM

CCCC(=O)N(C(=O)CCC)c1ccc(-n2nnc3cc(Cl)c(Cl)cc32)cc1 [1e]
CC50 (in vitro [2]): 16 µM
EC50 [3, 7]: > 25 µM
CC50 (in vitro [4]): 25 µM

Cc1ccc(C(=O)Nc2ccc(-n3nnc4cc(Cl)c(Cl)cc43)cc2)cc1 [1f]
CC50 (in vitro [2]): ≥ 100 µM
EC50 [3, 7]: > 30 µM
CC50 (in vitro [4]): > 30 µM

O=C(Nc1ccc(-n2nnc3cc(Cl)c(Cl)cc32)cc1)c1ccc(Cl)cc1 [1g]
CC50 (in vitro [6]): ≥ 100 µM
CC50 (in vitro [2]): > 100 µM
EC50 [3, 7]: ≥ 30 µM
CC50 (in vitro [4]): > 30 µM

O=C(Nc1ccc(-n2nnc3cc(Cl)c(Cl)cc32)cc1)c1ccc([N+](=O)[O-])cc1 [1h]
CC50 (in vitro [2]): 96 µM
EC50 [3, 7]: 21 µM
CC50 (in vitro [4]): > 30 µM

COc1ccc(C(=O)Nc2ccc(-n3nnc4cc(Cl)c(Cl)cc43)cc2)cc1 [1i]
CC50 (in vitro [2]): > 100 µM
EC50 [3, 7]: > 30 µM
CC50 (in vitro [4]): > 30 µM

COc1cc(C(=O)Nc2ccc(-n3nnc4cc(Cl)c(Cl)cc43)cc2)cc(OC)c1OC [1j]
CC50 (in vitro [2]): > 100 µM
EC50 [3, 7]: > 30 µM
CC50 (in vitro [4]): > 30 µM

Nc1ccc(-n2nc3cc(Cl)c(Cl)cc3n2)cc1 [2a]
CC50 (in vitro [6]): ≥ 100 µM
CC50 (in vitro [2]): > 100 µM
EC50 [3, 7]: > 30 µM
CC50 (in vitro [4]): > 30 µM

CC(=O)Nc1ccc(-n2nc3cc(Cl)c(Cl)cc3n2)cc1 [2b]
CC50 (in vitro [2]): > 100 µM
EC50 [3, 7]: > 30 µM
CC50 (in vitro [4]): > 30 µM

CCC(=O)Nc1ccc(-n2nc3cc(Cl)c(Cl)cc3n2)cc1 [2c]
CC50 (in vitro [2]): > 100 µM
EC50 [3, 7]: > 30 µM
CC50 (in vitro [4]): > 30 µM

CCC(=O)N(C(=O)CC)c1ccc(-n2nc3cc(Cl)c(Cl)cc3n2)cc1 [2d]
CC50 (in vitro [6]): ≥ 100 µM
CC50 (in vitro [2]): 26 µM
EC50 [3, 7]: > 30 µM
CC50 (in vitro [5]): 73 µM
CC50 (in vitro [4]): > 30 µM

CCCC(=O)N(C(=O)CCC)c1ccc(-n2nc3cc(Cl)c(Cl)cc3n2)cc1 [2e]
CC50 (in vitro [6]): ≥ 100 µM
CC50 (in vitro [2]): 62 µM
EC50 [3, 7]: > 30 µM
CC50 (in vitro [4]): > 30 µM

Cc1ccc(C(=O)Nc2ccc(-n3nc4cc(Cl)c(Cl)cc4n3)cc2)cc1 [2f]
CC50 (in vitro [2]): > 100 µM
EC50 [3, 7]: 22 µM
CC50 (in vitro [4]): > 30 µM

O=C(Nc1ccc(-n2nc3cc(Cl)c(Cl)cc3n2)cc1)c1ccc(Cl)cc1 [2g]
CC50 (in vitro [6]): 95 µM
CC50 (in vitro [2]): > 100 µM
EC50 [3, 7]: > 30 µM
CC50 (in vitro [4]): > 30 µM

O=C(Nc1ccc(-n2nc3cc(Cl)c(Cl)cc3n2)cc1)c1ccc([N+](=O)[O-])cc1 [2h]
CC50 (in vitro [2]): > 100 µM
EC50 [3, 7]: > 30 µM
CC50 (in vitro [4]): > 30 µM

COc1ccc(C(=O)Nc2ccc(-n3nc4cc(Cl)c(Cl)cc4n3)cc2)cc1 [2i]
CC50 (in vitro [1]): ≥ 100 µM
CC50 (in vitro [2]): > 100 µM
EC50 [3, 7]: > 30 µM
CC50 (in vitro [4]): > 30 µM

COc1cc(C(=O)Nc2ccc(-n3nc4cc(Cl)c(Cl)cc4n3)cc2)cc(OC)c1OC [2j]
effect on viral titer (result in words) (HTNV): significant reduction of viral titer
reduction of viral titer (HTNV): 2.14 log10
CC50 (in vitro [2]): 35 µM
Selectivity Index [3]: > 7.5
EC50 [3, 7]: ≤ 5 µM
EC50 [3]: 4 µM
CC50 (in vitro [4]): > 30 µM

CCNC(=O)Nc1ccc(-n2nc3cc(Cl)c(Cl)cc3n2)cc1 [2k]
CC50 (in vitro [2]): > 100 µM
EC50 [3, 7]: 26 µM
CC50 (in vitro [4]): > 30 µM

CCCNC(=O)Nc1ccc(-n2nc3cc(Cl)c(Cl)cc3n2)cc1 [2l]
effect on viral titer (result in words) (HTNV): significant reduction of viral titer
CC50 (in vitro [2]): 40 µM
Selectivity Index [3]: 6
EC50 [3, 7]: ≤ 5 µM
EC50 [3]: 5 µM
CC50 (in vitro [4]): 30 µM

CCCCNC(=O)Nc1ccc(-n2nc3cc(Cl)c(Cl)cc3n2)cc1 [2m]
CC50 (in vitro [6]): 95 µM
CC50 (in vitro [2]): > 100 µM
EC50 [3, 7]: > 30 µM
CC50 (in vitro [4]): > 30 µM

O=C(Nc1ccc(-n2nc3cc(Cl)c(Cl)cc3n2)cc1)NC1CCCCC1 [2n]
effect on viral titer (result in words) (HTNV): significant reduction of viral titer
CC50 (in vitro [2]): 71 µM
Selectivity Index [3]: > 7.5
EC50 [3, 7]: ≤ 5 µM
EC50 [3]: 4 µM
CC50 (in vitro [4]): > 30 µM

Cc1ccc(C(=O)Nc2ccc(-n3nc4ccccc4n3)cc2)cc1 [3f, N-(4-(2H-benzo[d][1,2,3]triazol-2-yl)phenyl)-4-methylbenzamide]
CC50 (in vitro [1]): > 100 µM
CC50 (in vitro [6]): > 100 µM
CC50 (in vitro [2]): > 100 µM
melting point: 266 to 268 °C
EC50 [3, 7]: > 30 µM
CC50 (in vitro [5]): > 100 µM
CC50 (in vitro [4]): > 30 µM

COc1cc(C(=O)Nc2ccc(-n3nc4ccccc4n3)cc2)cc(OC)c1OC [3j, N-(4-(2H-benzo[d][1,2,3]triazol-2-yl)phenyl)-3,4,5-trimethoxybenzamide]
CC50 (in vitro [1]): > 100 µM
CC50 (in vitro [6]): > 100 µM
CC50 (in vitro [2]): > 100 µM
melting point: 227 to 229 °C
EC50 [3, 7]: > 30 µM
CC50 (in vitro [5]): > 100 µM
CC50 (in vitro [4]): > 30 µM

CCNC(=O)Nc1ccc(-n2nc3ccccc3n2)cc1 [3k]
CC50 (in vitro [6]): > 100 µM
CC50 (in vitro [2]): > 100 µM
EC50 [3, 7]: > 30 µM
CC50 (in vitro [5]): > 100 µM
CC50 (in vitro [4]): > 30 µM

CCCNC(=O)Nc1ccc(-n2nc3ccccc3n2)cc1 [3l]
CC50 (in vitro [1]): > 100 µM
CC50 (in vitro [6]): > 100 µM
CC50 (in vitro [2]): > 100 µM
EC50 [3, 7]: > 30 µM
CC50 (in vitro [5]): > 100 µM
CC50 (in vitro [4]): > 30 µM

CCCCNC(=O)Nc1ccc(-n2nc3ccccc3n2)cc1 [3m]
CC50 (in vitro [1]): > 100 µM
CC50 (in vitro [6]): > 100 µM
CC50 (in vitro [2]): > 100 µM
EC50 [3, 7]: > 30 µM
CC50 (in vitro [5]): > 100 µM
CC50 (in vitro [4]): > 30 µM

O=C(Nc1ccc(-n2nc3ccccc3n2)cc1)NC1CCCCC1 [3n]
CC50 (in vitro [1]): > 100 µM
CC50 (in vitro [6]): 95 µM
CC50 (in vitro [2]): > 100 µM
EC50 [3, 7]: > 30 µM
CC50 (in vitro [5]): > 100 µM
CC50 (in vitro [4]): > 30 µM

Cc1ccc(C(=O)Nc2ccc(-n3nc4cc(C)c(C)cc4n3)cc2)cc1 [4f, N-(4-(5,6-dimethyl-2H-benzo[d][1,2,3]triazol-2-yl)phenyl)-4-methylbenzamide]
CC50 (in vitro [1]): > 100 µM
CC50 (in vitro [6]): > 100 µM
CC50 (in vitro [2]): > 100 µM
melting point: 295 to 296 °C
EC50 [3, 7]: > 30 µM
CC50 (in vitro [5]): > 100 µM
CC50 (in vitro [4]): > 30 µM

COc1cc(C(=O)Nc2ccc(-n3nc4cc(C)c(C)cc4n3)cc2)cc(OC)c1OC [4j, N-(4-(5,6-dimethyl-2H-benzo[d][1,2,3]triazol-2-yl)phenyl)-3,4,5-trimethoxybenzamide]
CC50 (in vitro [6]): > 100 µM
CC50 (in vitro [2]): > 100 µM
melting point: 272 to 273 °C
EC50 [3, 7]: > 30 µM
CC50 (in vitro [5]): > 100 µM
CC50 (in vitro [4]): > 30 µM

CCNC(=O)Nc1ccc(-n2nc3cc(C)c(C)cc3n2)cc1 [4k]
CC50 (in vitro [1]): > 100 µM
CC50 (in vitro [6]): > 100 µM
CC50 (in vitro [2]): > 100 µM
EC50 [3, 7]: > 30 µM
CC50 (in vitro [5]): > 100 µM
CC50 (in vitro [4]): > 30 µM

CCCNC(=O)Nc1ccc(-n2nc3cc(C)c(C)cc3n2)cc1 [4l]
CC50 (in vitro [1]): > 100 µM
CC50 (in vitro [6]): > 100 µM
CC50 (in vitro [2]): > 100 µM
EC50 [3, 7]: > 30 µM
CC50 (in vitro [5]): > 100 µM
CC50 (in vitro [4]): > 30 µM

CCCCNC(=O)Nc1ccc(-n2nc3cc(C)c(C)cc3n2)cc1 [4m]
CC50 (in vitro [1]): > 100 µM
CC50 (in vitro [6]): > 100 µM
CC50 (in vitro [2]): > 100 µM
EC50 [3, 7]: > 30 µM
CC50 (in vitro [5]): > 100 µM
CC50 (in vitro [4]): > 30 µM

Cc1cc2nn(-c3ccc(NC(=O)NC4CCCCC4)cc3)nc2cc1C [4n]
CC50 (in vitro [1]): > 100 µM
CC50 (in vitro [6]): 95 µM
CC50 (in vitro [2]): > 100 µM
EC50 [3, 7]: > 30 µM
CC50 (in vitro [5]): > 100 µM
CC50 (in vitro [4]): > 30 µM

NC(=O)c1ncn([C@@H]2O[C@H](CO)[C@@H](O)[C@H]2O)n1 [RBV, Ribavirin, reference compound]
effect on viral titer (result in words) (HTNV; 50 µM): significant decline in viral titer
Selectivity Index [3]: > 2
EC50 [3, 7]: 37 µM
CC50 (in vitro [4]): > 100 µM
